In ChEMBL document CHEMBL5696442, “Discovery of type II inhibitors of TGFβ-activated kinase 1 (TAK1) and mitogen-activated protein kinase kinase kinase kinase 2 (MAP4K2)” (J Med Chem, 2015):
The source made the active and inactive calls. The calls are words filed in the database; no cut-off is given here.

Key:
[1] = biological target: T1, Dual specificity mitogen-activated protein kinase kinase 6 (Homo sapiens) (UniProt P52564); test: Inhibition of MAP2K6 ACT labeling site in human Huh-7 cell lysate at 1 uM by KiNativ Profiling analysis relative to control; assay type: subcellular
T1 sequence (whole entry): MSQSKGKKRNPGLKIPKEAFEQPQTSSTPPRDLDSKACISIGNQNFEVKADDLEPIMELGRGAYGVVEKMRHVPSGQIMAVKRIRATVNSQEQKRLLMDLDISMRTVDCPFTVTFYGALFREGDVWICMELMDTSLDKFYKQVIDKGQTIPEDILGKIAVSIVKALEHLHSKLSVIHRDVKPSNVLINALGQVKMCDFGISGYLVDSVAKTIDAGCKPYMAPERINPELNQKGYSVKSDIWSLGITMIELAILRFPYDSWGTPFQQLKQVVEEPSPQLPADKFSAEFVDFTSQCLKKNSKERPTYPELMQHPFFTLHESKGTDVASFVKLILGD

[2] = biological target: 5'-AMP-activated protein kinase catalytic subunit alpha-2 (Homo sapiens) (UniProt P54646); test: Inhibition of AMPKa2 Lys1 labeling site in human Huh-7 cells at 1 uM by KiNativ Profiling analysis relative to control; assay type: cell-based
[3] = biological target: Serine/threonine-protein kinase MARK2 (Homo sapiens) (UniProt Q7KZI7); test: Inhibition of MARK2 Lys1 labeling site harbouring HILTGKEVAVKIIDKTQLNSSSLQK in human Huh-7 cells at 1 uM by KiNativ Profiling analysis relative to control; assay type: cell-based
[4] = biological target: T2, Eukaryotic translation initiation factor 2-alpha kinase 3 (Homo sapiens) (UniProt Q9NZJ5); test: Inhibition of PEK Lys2 labeling site in human Huh-7 cells at 1 uM by KiNativ Profiling analysis relative to control; assay type: cell-based
T2 sequence (whole entry): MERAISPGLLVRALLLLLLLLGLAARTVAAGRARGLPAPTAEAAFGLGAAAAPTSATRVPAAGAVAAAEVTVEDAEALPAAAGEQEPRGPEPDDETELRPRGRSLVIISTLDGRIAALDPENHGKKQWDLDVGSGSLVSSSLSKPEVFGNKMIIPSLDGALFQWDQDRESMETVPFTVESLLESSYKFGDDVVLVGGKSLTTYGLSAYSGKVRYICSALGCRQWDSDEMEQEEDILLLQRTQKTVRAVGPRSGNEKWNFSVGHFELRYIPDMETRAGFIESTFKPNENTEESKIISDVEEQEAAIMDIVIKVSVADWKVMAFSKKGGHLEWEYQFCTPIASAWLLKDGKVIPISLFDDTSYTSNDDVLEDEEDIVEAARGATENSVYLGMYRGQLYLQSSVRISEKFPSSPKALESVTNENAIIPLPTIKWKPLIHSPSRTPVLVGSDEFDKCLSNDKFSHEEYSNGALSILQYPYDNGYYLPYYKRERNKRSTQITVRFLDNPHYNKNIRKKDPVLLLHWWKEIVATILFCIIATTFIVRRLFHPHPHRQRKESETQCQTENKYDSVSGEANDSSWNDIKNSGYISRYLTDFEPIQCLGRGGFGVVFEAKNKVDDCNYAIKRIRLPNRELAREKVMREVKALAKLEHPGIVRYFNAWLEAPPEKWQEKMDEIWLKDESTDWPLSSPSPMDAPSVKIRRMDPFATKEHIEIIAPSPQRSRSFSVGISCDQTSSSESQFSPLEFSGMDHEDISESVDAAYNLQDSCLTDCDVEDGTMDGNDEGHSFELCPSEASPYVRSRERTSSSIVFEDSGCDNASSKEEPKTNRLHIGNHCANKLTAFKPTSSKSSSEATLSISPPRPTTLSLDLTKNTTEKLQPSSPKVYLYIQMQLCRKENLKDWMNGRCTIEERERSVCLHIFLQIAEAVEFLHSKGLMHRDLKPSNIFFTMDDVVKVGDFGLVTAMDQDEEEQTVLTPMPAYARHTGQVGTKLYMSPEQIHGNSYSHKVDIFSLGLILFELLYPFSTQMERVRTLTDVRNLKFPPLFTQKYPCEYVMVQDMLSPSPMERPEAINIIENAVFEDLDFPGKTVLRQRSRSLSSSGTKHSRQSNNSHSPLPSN

[5] = biological target: Phosphatidylinositol 4-kinase type 2-beta (Homo sapiens) (UniProt Q8TCG2); test: Inhibition of PI4K2B ATP labeling site in human Huh-7 cells at 1 uM by KiNativ Profiling analysis relative to control; assay type: cell-based
[6] = biological target: T3, NUAK family SNF1-like kinase 1 (Homo sapiens) (UniProt O60285); test: Inhibition of ARK5 (unknown origin) at 10 uM by Ambit Kinomescan binding assay
T3 sequence (whole entry): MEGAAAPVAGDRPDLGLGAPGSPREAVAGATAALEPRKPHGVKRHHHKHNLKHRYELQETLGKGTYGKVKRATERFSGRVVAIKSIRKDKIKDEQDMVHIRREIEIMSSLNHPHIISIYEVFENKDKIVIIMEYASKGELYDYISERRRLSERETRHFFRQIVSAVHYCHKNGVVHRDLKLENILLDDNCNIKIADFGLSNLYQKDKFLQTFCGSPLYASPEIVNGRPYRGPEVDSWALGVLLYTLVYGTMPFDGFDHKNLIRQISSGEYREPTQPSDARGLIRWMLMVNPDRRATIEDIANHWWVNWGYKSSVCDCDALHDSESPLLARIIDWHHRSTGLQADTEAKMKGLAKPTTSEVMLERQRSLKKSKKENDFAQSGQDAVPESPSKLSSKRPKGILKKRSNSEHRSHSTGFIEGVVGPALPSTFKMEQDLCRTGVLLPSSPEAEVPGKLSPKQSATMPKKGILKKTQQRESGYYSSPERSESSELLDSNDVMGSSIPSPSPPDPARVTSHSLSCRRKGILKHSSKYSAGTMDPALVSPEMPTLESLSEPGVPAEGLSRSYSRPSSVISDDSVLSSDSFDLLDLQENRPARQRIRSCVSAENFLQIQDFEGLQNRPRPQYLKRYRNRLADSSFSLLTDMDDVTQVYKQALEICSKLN

[7] = biological target: Serine/threonine-protein kinase PLK4 (Homo sapiens) (UniProt O00444); test: Inhibition of PLK4 (unknown origin) at 10 uM by Ambit Kinomescan binding assay
[8] = biological target: Calcium/calmodulin-dependent protein kinase type II subunit alpha (Homo sapiens) (UniProt Q9UQM7); test: Inhibition of CAMK2a K2 labeling site in human Huh-7 cells at 10 uM by KiNativ Profiling analysis relative to control; assay type: cell-based
[9] = biological target: SRSF protein kinase 3 (Homo sapiens) (UniProt Q9UPE1); test: Inhibition of SRPK3 (unknown origin) at 1 uM by Ambit Kinomescan binding assay relative to control
[10] = biological target: Cyclin-dependent kinase-like 3 (Homo sapiens) (UniProt Q8IVW4); test: Inhibition of CDKL3 (unknown origin) at 1 uM by Ambit Kinomescan binding assay relative to control; values are per cent of control
[11] = biological target: Dual specificity tyrosine-phosphorylation-regulated kinase 1A (Homo sapiens) (UniProt Q13627); test: Inhibition of DYRK1A (unknown origin) at 1 uM by Ambit Kinomescan binding assay relative to control; values are per cent of control

Serine/threonine-protein kinase MARK2 (Homo sapiens), sequence (Q7KZI7 whole entry): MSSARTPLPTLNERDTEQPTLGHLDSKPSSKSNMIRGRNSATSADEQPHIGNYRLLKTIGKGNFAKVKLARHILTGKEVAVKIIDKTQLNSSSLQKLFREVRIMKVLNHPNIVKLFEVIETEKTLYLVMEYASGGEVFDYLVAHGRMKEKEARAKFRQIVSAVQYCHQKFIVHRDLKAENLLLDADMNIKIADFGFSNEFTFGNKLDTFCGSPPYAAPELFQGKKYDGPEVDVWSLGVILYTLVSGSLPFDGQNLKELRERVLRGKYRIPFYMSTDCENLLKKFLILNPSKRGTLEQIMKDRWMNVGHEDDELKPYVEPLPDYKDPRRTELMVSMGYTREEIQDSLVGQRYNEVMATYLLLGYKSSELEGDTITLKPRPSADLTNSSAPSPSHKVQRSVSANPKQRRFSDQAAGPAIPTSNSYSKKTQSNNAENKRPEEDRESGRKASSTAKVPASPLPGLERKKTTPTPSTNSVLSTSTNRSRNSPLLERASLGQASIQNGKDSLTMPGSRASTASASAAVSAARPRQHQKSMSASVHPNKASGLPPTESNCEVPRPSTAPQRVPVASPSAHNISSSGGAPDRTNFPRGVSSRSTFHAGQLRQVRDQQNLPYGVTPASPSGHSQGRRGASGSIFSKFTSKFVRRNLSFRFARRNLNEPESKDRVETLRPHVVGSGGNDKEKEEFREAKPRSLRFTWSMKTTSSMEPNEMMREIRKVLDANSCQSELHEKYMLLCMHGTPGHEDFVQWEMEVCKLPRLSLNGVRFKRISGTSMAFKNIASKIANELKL
Cyclin-dependent kinase-like 3 (Homo sapiens), sequence (Q8IVW4 whole entry, looked up): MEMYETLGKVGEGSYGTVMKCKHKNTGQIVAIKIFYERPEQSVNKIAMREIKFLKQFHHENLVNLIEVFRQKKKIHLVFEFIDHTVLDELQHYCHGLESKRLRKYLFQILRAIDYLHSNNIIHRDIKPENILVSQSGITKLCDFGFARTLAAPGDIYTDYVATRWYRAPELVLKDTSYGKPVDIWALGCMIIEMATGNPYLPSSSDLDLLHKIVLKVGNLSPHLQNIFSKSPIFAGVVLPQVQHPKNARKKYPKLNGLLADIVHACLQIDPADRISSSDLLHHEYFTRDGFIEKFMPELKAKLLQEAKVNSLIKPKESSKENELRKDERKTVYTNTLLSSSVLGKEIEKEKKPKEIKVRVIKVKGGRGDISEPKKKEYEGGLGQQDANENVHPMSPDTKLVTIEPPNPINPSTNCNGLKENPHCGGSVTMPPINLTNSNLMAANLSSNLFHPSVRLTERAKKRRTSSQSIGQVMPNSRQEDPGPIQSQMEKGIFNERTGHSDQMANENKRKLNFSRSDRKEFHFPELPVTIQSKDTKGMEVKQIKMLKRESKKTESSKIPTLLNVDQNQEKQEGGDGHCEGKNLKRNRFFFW
5'-AMP-activated protein kinase catalytic subunit alpha-2 (Homo sapiens), sequence (P54646 whole entry, looked up): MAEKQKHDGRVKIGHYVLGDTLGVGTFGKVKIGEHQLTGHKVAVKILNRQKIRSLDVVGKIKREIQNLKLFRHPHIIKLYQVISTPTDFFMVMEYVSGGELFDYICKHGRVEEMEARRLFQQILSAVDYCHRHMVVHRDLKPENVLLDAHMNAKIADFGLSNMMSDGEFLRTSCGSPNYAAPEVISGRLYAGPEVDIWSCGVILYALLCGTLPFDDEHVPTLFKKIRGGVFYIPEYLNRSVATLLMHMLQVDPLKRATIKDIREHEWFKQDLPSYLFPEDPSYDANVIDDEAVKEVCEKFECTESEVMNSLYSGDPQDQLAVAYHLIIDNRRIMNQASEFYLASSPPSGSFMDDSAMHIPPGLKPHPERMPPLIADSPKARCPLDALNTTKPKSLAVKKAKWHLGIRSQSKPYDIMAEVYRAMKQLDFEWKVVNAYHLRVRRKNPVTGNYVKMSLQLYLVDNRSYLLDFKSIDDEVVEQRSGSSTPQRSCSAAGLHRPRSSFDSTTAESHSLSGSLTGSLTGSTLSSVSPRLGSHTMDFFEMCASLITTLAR
Serine/threonine-protein kinase PLK4 (Homo sapiens), sequence (O00444 whole entry): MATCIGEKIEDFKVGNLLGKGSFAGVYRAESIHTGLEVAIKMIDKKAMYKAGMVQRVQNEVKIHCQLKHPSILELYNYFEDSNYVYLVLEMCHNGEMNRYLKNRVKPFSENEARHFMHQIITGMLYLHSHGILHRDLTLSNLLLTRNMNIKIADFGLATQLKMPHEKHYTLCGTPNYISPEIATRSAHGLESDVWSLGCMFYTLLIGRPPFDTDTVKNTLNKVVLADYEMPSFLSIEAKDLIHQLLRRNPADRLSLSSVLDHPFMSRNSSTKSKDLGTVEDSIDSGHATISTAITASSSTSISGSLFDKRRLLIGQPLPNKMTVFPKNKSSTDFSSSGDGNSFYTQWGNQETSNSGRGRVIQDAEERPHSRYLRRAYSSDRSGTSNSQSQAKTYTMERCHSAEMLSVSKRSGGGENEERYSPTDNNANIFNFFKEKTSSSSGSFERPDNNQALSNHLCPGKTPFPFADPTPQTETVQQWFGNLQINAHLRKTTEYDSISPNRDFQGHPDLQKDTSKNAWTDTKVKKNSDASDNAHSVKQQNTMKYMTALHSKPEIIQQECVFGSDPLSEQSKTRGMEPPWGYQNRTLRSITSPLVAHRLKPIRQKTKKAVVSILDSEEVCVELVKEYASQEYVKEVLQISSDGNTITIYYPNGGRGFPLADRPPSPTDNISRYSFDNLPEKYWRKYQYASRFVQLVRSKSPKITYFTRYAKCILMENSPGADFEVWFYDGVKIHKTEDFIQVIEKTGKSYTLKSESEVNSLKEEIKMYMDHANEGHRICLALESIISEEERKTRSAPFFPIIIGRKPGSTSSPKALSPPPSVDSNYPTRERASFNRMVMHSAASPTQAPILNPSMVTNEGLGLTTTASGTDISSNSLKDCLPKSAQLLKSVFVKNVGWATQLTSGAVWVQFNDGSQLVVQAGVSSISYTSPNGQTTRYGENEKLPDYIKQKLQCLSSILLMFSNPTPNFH
Calcium/calmodulin-dependent protein kinase type II subunit alpha (Homo sapiens), sequence (Q9UQM7 whole entry): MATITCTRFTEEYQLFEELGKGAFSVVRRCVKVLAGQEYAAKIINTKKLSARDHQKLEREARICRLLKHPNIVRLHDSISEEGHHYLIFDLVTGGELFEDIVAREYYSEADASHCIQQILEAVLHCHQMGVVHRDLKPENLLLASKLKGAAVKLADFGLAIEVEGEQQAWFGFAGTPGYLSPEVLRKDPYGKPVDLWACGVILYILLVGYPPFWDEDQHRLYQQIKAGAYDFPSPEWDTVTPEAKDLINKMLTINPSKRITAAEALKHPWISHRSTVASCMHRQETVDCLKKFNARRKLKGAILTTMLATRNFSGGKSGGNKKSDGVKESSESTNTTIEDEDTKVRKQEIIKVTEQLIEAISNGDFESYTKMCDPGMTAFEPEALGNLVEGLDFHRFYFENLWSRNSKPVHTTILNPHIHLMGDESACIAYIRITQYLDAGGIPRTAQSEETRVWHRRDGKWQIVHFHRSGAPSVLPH
SRSF protein kinase 3 (Homo sapiens), sequence (Q9UPE1 whole entry): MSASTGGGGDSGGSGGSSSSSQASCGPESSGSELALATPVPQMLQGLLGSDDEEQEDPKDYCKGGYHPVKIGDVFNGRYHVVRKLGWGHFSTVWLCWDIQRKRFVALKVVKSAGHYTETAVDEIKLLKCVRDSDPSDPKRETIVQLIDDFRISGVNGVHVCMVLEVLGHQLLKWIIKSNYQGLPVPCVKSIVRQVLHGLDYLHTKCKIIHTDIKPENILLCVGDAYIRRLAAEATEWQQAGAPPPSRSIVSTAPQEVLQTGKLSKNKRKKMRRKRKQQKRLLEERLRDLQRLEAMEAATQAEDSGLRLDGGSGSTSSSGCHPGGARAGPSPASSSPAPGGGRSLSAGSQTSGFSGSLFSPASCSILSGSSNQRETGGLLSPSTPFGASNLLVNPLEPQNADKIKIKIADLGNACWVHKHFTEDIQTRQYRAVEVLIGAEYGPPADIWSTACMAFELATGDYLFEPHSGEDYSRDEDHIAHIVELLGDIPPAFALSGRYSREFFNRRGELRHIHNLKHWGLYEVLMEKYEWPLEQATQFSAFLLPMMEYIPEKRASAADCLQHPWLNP
Phosphatidylinositol 4-kinase type 2-beta (Homo sapiens), sequence (Q8TCG2 whole entry): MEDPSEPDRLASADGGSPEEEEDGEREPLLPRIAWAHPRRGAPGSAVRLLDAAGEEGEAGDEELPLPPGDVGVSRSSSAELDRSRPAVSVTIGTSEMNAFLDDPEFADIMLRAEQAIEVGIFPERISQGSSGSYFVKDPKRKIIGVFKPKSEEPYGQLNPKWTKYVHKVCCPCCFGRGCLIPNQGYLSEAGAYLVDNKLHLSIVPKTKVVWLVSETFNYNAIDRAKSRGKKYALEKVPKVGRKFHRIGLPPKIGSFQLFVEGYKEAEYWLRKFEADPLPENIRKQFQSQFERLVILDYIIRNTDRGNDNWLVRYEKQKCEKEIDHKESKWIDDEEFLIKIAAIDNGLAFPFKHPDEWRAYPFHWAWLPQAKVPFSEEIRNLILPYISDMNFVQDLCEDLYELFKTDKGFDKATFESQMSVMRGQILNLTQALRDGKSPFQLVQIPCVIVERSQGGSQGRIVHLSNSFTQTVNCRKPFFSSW

## CNc1cc(Oc2cc(C(=O)Nc3cc(N4CCN(C)CC4)cc(C(F)(F)F)c3)ccc2C)ncn1
[1]
  inhibition: -1.2%
[2]
  inhibition: -7.5%
[3]
  inhibition: -0.2%
[4]
  inhibition: 16.8%
[5]
  inhibition: 16%

## CCN1CCN(Cc2ccc(NC(=O)c3ccc(C)c(Oc4ccnc5[nH]ccc45)c3)cc2C(F)(F)F)CC1
[6]
  inhibition: inactive
[7]
  inhibition: inactive
[8]
  inhibition: 6.2%

## CCN1CCN(Cc2ccc(NC(=O)c3ccc(C)c(/C=C/c4cnc5[nH]ccc5c4OC)c3)cc2C(F)(F)F)CC1
[9]
  inhibition: 37%
[10]
  residual activity: 50%
[11]
  residual activity: 100%
